# From patent publication US20170050957A1, “4-AMINO-6-(HETEROCYCLIC)PICOLINATES AND 6-AMINO-2-(HETEROCYCLIC)PYRIMIDINE-4-CARBOXYLATES AND THEIR USE AS HERBICIDES” (Dow AgroSciences LLC, priority 2013, published 2017)
# Legend:
# [1] = system: barnyardgrass (Echinochloa crus-galli); experiment: Post-emergent Test I herbicidal activity; type: in vivo; details: 4 Kg ai/ha
# Description: (§1) Post-emergent Test I Seeds test species were obtained from commercial suppliers and planted into a 5″-round pot containing soil-less media mix (metro-mix 360®, Sun Gro Horticulture). Postemergence treatments were planted 8-12 days prior to application and cultured in a greenhouse equipped with supplemental light sources to provide a 16 h photoperiod at 24-29° C. All pots were surface irrigated. Approximately 10 milligrams (mg) of each compound were dissolved in 1.3 mL acetone-DMSO (97:3, v/v) and diluted with 4.1 mL water-isopropanol-crop oil concentrate (78:20:2, v/v/v) containing 0.02% Triton X-155. Treatments were serial diluted with the above formulation solvent to provide 1.85, 0.926, 0.462 and 0.231 mg/mL of test compound delivered in 2.7 mL/pot (roughly equivalent to 4.0, 2.0, 1.0, and 0.5 kg/ha, respectively). Formulated compounds were applied using a DeVilbiss® compressed air sprayer at 2-4 psi. Following treatment, pots were returned to the greenhouse for the duration of the experiment. All pots were sub-irrigated as need to provide optimum growing conditions. All pots were fertilized one time per week by subirrigating with Peters Peat-Lite Special® fertilizer (20-10-20). Phytotoxicity ratings were obtained 10 days after treatment postemergence applications. All evaluations were made visually on a scale of 0 to 100 where 0 represents no activity and 100 represents complete plant death. Visual assessments of plant injury were made based on growth reduction, discoloration, leaf deformity and necrosis
# [2] = system: sunflower (Helianthus annuus); experiment: Post-emergent Test I herbicidal activity; type: in vivo; details: 4 Kg ai/ha
# Description: as §1
SMILES,Visual Growth Reduction (%) 10 Days After Application ECHCG [1],Visual Growth Reduction (%) 10 Days After Application HELAN [2]
COC(=O)c1nc(-c2ccc3sccc3c2)cc(N)c1Cl [Compound 3.05],A (95-100),B (85-94)
Nc1c(F)c(-c2cccc3cc[nH]c23)nc(C(=O)O)c1Cl [Compound 1.48],G (0-29),C (75-84)
